Key:
[1] = biological target: T1, human GPR40 (Homo sapiens, UniProt O14842); test: EC50 by FLIPR calcium assay in CHO cells stably expressing human GPR40; assay type: cell-based; settings: intracellular calcium, FLIPR, stable CHO line; read-out: EC50 Human GPR40
T1 construct: The resulting fragment (ca. 1 kb) was introduced into vector pAKKO-111, which was used for transfection of CHO cells; expressed in transfected cells

[2] = biological target: T2, human-derived GPR40 (Homo sapiens, UniProt O14842); test: Intracellular calcium change (FLIPR) in CHO-K1 cells transiently expressing GPR40; assay type: cell-based; settings: added in 10^−5 M to 10^−6 M; no response in vector-only control cells
T2 construct: The DNA fragment encoding human GPR40 was acquired by the following PCR procedures; expressed in transfected cells; host or cells: CHO-K1 (transient, Lipofectamine)
Description: The CHO-K1 cell line was cultured in HAM F-12 medium (Invitrogen) containing 10% fetal calf serum (Invitrogen), unless otherwise indicated. One day before transfection, 4.5×10^5 cells per 10 cm^2 were plated, followed by incubation in a CO2 incubator adjusted to a concentration of 5% CO2 at 37° C. for at least 15 hours. Using Lipofectamine reagent (Invitrogen), transfection procedures were carried out by modifications of the method attached to the reagent. When a 6-well plate was used for the incubator, the following procedures were performed. First, 2 tubes each having a 1.5 ml volume were prepared and 100 μl each of Opti-MEM-I medium (Invitrogen) was dispensed in each tube. Next, 1 μg of the expression vector was charged in one tube and in another tube, 6 μl of Lipofectamine reagent was charged, which were mixed together. The mixture was settled for 20 minutes at room temperature. To the solution, 800 μl of Opti-MEM-I medium was added and the resulting solution mixture for transfection was added to CHO-K1 cells, which had been previously washed with Opti-MEM-I medium. Then, the cells were incubated in a CO2 incubator for 6 hours. After the incubation, the cells were rinsed with PBS (Invitrogen), then scraped using 0.05% trypsin-EDTA solution (Invitrogen) and recovered by centrifugal operation. The cells obtained were counted and diluted to 5×10^4 cells per 200 μl of the medium. The dilution was dispensed onto a Black walled 96-well plate (Costar) in 200 μl each per well, followed by incubation overnight in a CO2 incubator. Various test samples were added to the CHO-K1 cells in which the receptor was transiently expressed by the transfection operation described above, whereby changes in the intracellular calcium ion level were determined using FLIPR (Molecular Device). In order to determine the changes in the intracellular calcium ion level on FLIPR, the cells were pre-treated by the following procedures. First, for the purpose of adding a fluorescent dye Fluo-3 AM (DOJIN) to the cells or washing the cells immediately before the FLIPR assay, an assay buffer was prepared. A solution obtained by adding 20 ml of 1M HEPES (pH 7.4) (DOJIN) to 1000 ml of HBSS (Invitrogen) was prepared (hereinafter HBSS/HEPES solution), to which 10 ml of a solution mixture obtained by dissolving 710 mg of Probenecid (Sigma) in 5 ml of 1N NaOH and further adding 5 ml of HBSS/HEPES solution was added. The resulting solution was used as the assay buffer. Next, 50 μg of Fluo-3AM was dissolved in 21 μl of DMSO (DOJIN) and an equal volume of 20% Pulronic acid (Molecular Probes) was added to and mixed with the solution. The mixture was then added to 10.6 ml of the assay buffer supplemented with 105 μl of fetal calf serum to prepare a fluorescent dye solution. The medium for the transfection-treated CHO-K1 cells was removed. Immediately thereafter, the fluorescent dye solution was dispensed in 100 μl each/well and the cells were incubated in a CO2 incubator for an hour so that the fluorescent dye was taken up into the cells. The cells after the incubation was washed with the assay buffer described above and set on FLIPR. A test sample added to the receptor-expressed CHO-K1 cells was prepared using the assay buffer and set on FLIPR at the same time. After various test samples were added thereto.
Following the pre-treatment above, changes in intracellular calcium level after addition of various test samples were measured on FLIPR.

T1 sequence (O14842 whole entry, the tested form may be a part): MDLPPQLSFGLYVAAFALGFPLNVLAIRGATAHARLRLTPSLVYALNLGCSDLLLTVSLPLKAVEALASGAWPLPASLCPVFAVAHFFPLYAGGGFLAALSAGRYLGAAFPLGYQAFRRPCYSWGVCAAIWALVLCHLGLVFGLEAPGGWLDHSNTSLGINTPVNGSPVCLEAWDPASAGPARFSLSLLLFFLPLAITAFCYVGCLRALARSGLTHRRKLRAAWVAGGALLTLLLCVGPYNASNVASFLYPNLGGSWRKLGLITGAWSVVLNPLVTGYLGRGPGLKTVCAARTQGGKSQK
T2 sequence (O14842 whole entry, the tested form may be a part): as above

Row | Structure (SMILES) | EC50 [1] | response (increase in intracellular calcium level) of GPR40-expressing CHO-K1 cells [2]
1 | CCCCC/C=C\C/C=C\C/C=C\C/C=C\CCCC(=O)O [Arachidonic acid (C20:4), Arachidonic acid] | 2400 ± 600 nM | specifically responsive
2 | CC/C=C\C/C=C\C/C=C\C/C=C\C/C=C\C/C=C\CCC(=O)O [Docosahexaenoic acid (C22:6), 4Z,7Z,10Z,13Z,16Z,19Z-docosahexaenoic acid] | 1100 ± 300 nM | specifically responsive
3 | CCCCC/C=C\C/C=C\CCCCCCCC(=O)O [Linoleic acid (C18:2), Linoleic acid] | 1800 ± 100 nM | specifically responsive
4 | CCCCCCCC/C=C\CCCCCCCC(=O)O [Oleic acid (C18:1), Oleic acid] | 2000 ± 300 nM | specifically responsive
5 | CCCCC/C=C\C/C=C\C/C=C\CCCCC(=O)O [γ-Linolenic acid (C18:3), γ-Linolenic acid] | 4600 ± 1600 nM | 

From patent US7214495B2, “Screening method” (Takeda Pharmaceutical Company Limited, priority 2002, dated 2007)
